Paper PMC9311154 (British Journal of Clinical Pharmacology, 2022)

Legend:
CYP3A4 = CYP3A4 (Homo sapiens, UniProt P08684); assay: Midazolam interaction study; format: in vivo; conditions: for AUC ratio day 1/day−1, point estimate geometric LS means (geometric 90% CI) / AUC ratio day 10/day−1, point estimate geometric LS means (geometric 90% CI): ANOVA
Safety and tolerability = format: in vivo, human; conditions: midazolam alone
[1] = BAY 2433334 25 mg OD + Midazolam
[2] = BAY 2433334 75 mg OD + Midazolam
[3] = day 1, coadministration of BAY 2433334 25 mg
[4] = day 1, coadministration of BAY 2433334 75 mg
[5] = day 10, BAY 2433334 25 mg once daily
[6] = BAY 2433334 25 mg treatment sequence
[7] = BAY 2433334 75 mg treatment sequence

CYP3A4, sequence (P08684 whole entry): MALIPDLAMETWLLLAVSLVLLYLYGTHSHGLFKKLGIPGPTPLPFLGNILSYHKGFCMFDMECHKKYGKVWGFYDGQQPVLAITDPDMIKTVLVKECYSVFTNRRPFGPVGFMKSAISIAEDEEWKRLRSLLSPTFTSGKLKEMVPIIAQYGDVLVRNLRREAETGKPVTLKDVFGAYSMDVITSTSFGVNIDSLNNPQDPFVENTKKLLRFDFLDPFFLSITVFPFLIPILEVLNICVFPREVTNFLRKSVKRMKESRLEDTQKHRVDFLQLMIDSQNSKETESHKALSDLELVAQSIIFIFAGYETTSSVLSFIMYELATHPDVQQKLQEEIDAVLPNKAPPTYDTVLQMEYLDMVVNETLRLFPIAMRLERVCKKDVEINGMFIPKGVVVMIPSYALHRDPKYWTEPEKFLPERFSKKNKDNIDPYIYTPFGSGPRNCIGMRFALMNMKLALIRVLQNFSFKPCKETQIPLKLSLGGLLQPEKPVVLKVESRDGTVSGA

Structure (SMILES): Cc1ncc2n1-c1ccc(Cl)cc1C(c1ccccc1F)=NC2 [Midazolam, midazolam]
- AUC ratio day 1/day−1, point estimate geometric LS means (geometric 90% CI) (CYP3A4; [1]): 1.0415 (0.9659–1.1230)
- AUC ratio day 10/day−1, point estimate geometric LS means (geometric 90% CI) (CYP3A4; [1]): 1.0630 (0.9859–1.1461)
- AUC ratio day 1/day−1, point estimate geometric LS means (geometric 90% CI) (CYP3A4; [2]): 1.0451 (0.9785–1.1164)
- AUC ratio day 10/day−1, point estimate geometric LS means (geometric 90% CI) (CYP3A4; [2]): 1.1736 (1.0963–1.2564)
- AUC ratio day 10/day−1, point estimate geometric LS means (geometric 90% CI) (CYP3A4; BAY 2433334 75 mg OD + Midazolam, listed as midazolam): 1.1736 [1.0963–1.2564]
- increase in the AUC (CYP3A4; [3]): 4.2%
- increase in the AUC (CYP3A4; [4]): 4.5%
- increase in the AUC (CYP3A4; [5]): 6.3%
- increase in the AUC (CYP3A4; day 10, pre‐ and coadministration of BAY 2433334 75 mg): 17%
- half-life (CYP3A4; human, plasma, oral, 7.5 mg, t1/2, Day −1, midazolam 7.5 mg alone, BAY 2433334 75 mg OD group, median (range), geometric mean not calculated): 287 min
- tmax (CYP3A4; human, plasma, oral, 7.5 mg, tmax, Day −1, midazolam 7.5 mg alone, BAY 2433334 25 mg OD group, median (range)): 35 min
- tmax (CYP3A4; human, plasma, oral, 7.5 mg, tmax, Day −1, midazolam 7.5 mg alone, BAY 2433334 75 mg OD group, median (range)): 45 min
- tmax (CYP3A4; human, plasma, oral, tmax, Day 1, midazolam 7.5 mg with BAY 2433334 25 mg OD, median (range)): 44.5 min
- tmax (CYP3A4; human, plasma, oral, tmax, Day 1, midazolam 7.5 mg with BAY 2433334 75 mg OD, median (range)): 45 min
- tmax (CYP3A4; human, plasma, oral, tmax, Day 10, midazolam 7.5 mg with BAY 2433334 25 mg OD, median (range)): 45 min
- tmax (CYP3A4; human, plasma, oral, tmax, Day 10, midazolam 7.5 mg with BAY 2433334 75 mg OD, median (range)): 45 min
- Adverse event(s) of special interest (Safety and tolerability; [6]): 0 Number (%)
- Study drug‐related adverse event(s) (Safety and tolerability; [6]): 0 Number (%)
- Study procedure‐related adverse event(s) (Safety and tolerability; [6]): 3 (12.5%) Number (%)
- Adverse event(s) of special interest (Safety and tolerability; [7]): 0 Number (%)
- Study drug‐related adverse event(s) (Safety and tolerability; [7]): 0 Number (%)
- Study procedure‐related adverse event(s) (Safety and tolerability; [7]): 1 (4.2%) Number (%)

Structure (SMILES): OCc1ncc2n1-c1ccc(Cl)cc1C(c1ccccc1F)=NC2 [α‐Hydroxymidazolam, α‐hydroxymidazolam]
- AUC ratio day 1/day−1, point estimate geometric LS means (geometric 90% CI) (CYP3A4; [1]): 1.0650 (0.9661–1.1741)
- AUC ratio day 10/day−1, point estimate geometric LS means (geometric 90% CI) (CYP3A4; [1]): 1.0560 (0.9595–1.1622)
- AUC ratio day 1/day−1, point estimate geometric LS means (geometric 90% CI) (CYP3A4; [2]): 0.9856 (0.9206–1.0551)
- AUC ratio day 10/day−1, point estimate geometric LS means (geometric 90% CI) (CYP3A4; [2]): 0.9864 (0.9169–1.0612)
- AUC ratio day 10/day−1, point estimate geometric LS means (geometric 90% CI) (CYP3A4; BAY 2433334 75 mg OD + Midazolam, listed as α‐hydroxymidazolam): 0.9864 [0.9169–1.0612]
- tmax (CYP3A4; Day 1, midazolam 7.5 mg with BAY 2433334 25 mg OD, median (range)): 0.742 (0.500–4.00) h
- tmax (CYP3A4; Day 1, midazolam 7.5 mg with BAY 2433334 75 mg OD, median (range)): 0.750 (0.483–4.00) h
- tmax (CYP3A4; Day 10, midazolam 7.5 mg with BAY 2433334 25 mg OD, median (range)): 0.750 (0.483–4.00) h
- tmax (CYP3A4; Day 10, midazolam 7.5 mg with BAY 2433334 75 mg OD, median (range)): 0.750 (0.483–2.00) h
- tmax (CYP3A4; Day −1, midazolam 7.5 mg alone, BAY 2433334 25 mg OD group, median (range)): 0.708 (0.483–4.00) h
- tmax (CYP3A4; Day −1, midazolam 7.5 mg alone, BAY 2433334 75 mg OD group, median (range)): 0.750 (0.500–3.00) h
- increase in the AUC (CYP3A4; [3]): 4.4%
- decrease in the AUC (CYP3A4; [4]): 1.5%
- increase in the AUC (CYP3A4; [5]): 6.0%
- time to maximum plasma concentrations, range across treatments (CYP3A4; with and without BAY 2433334): 0.583 to 0.750 h
